Data taken from BindingDB's records for doi:10.7270/Q2S180TW (Burnham Center For Chemical Genomics, 2008).

Target: Heat shock 70 kDa protein 1A (Homo sapiens, UniProt V9GZ37)
Assay: Hsp70 inhibitors, probe displacement, primary screen, biochemical, fluorescence polarization (AID 583)
Details: pH 7; 23 °C

Chain of Heat shock 70 kDa protein 1A (V9GZ37 whole entry): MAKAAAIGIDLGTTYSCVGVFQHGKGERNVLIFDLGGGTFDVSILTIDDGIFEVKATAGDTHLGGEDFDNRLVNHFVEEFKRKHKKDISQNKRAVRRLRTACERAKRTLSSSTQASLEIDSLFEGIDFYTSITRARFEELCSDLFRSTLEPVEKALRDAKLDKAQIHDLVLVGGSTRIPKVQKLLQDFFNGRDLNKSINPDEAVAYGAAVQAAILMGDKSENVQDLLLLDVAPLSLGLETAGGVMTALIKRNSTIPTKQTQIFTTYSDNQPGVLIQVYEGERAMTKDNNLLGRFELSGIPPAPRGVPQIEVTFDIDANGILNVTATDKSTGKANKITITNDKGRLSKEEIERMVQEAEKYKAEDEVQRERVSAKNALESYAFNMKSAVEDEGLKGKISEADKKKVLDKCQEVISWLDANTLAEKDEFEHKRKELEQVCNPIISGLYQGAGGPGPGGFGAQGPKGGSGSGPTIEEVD

Row | IC50 | Compound
1 | 100 µM | CC(=O)N1CCC2(CC1)c1c(n[nH]c1C)OC(=N)C2C#N (configuration not stated) [6-azanyl-1'-ethanoyl-3-methyl-spiro[2H-pyrano[2,3-c]pyrazole-4,4'-piperidine]-5-carbonitrile]
2 | 21.7 µM | C=c1[nH]n(-c2cccc(C(=O)O)c2)c(=O)c1=CC=Cc1ccco1 [SMR000113614]
